This is an account of results in patent US7622469B2, “2,4-diamino-1,3,5-triazine derivatives” (Hamari Chemicals, Ltd., priority 2002, dated 2009).

≈ marks a conversion by molar mass, not a printed value.

The subject of test [1] is MRSA 97-115. Briefly: Antibacterial activity test (MIC). The format is cell-based, methicillin-resistant Staphylococcus aureus. Particulars: Mueller-Hinton Broth, 37° C., 20 to 24 hours. As for the experimental part:
(§1) Regarding compounds obtained in respective Working Examples, in order to investigate antibacterial activity, minimal inhibitory concentration (MIC) was determined according to a standard method of Japanese Society of Chemotherapy.
(§2) As a test bacterium, nine kinds of S. aureus 209PJC, MRSA 97-115, MRSA KM 97-53, MRSA KM97-108, VRE 49, E. coli NIHJ JC-2, P. aeruginosa PAO-1, P. aeruginosa No. 12, P. aeruginosa KM97-5 were used and, as a medium, Mueller-Hinton Broth (DIFCO) was used. One platinum loop of a test bacterium was inoculated into 20 ml of a medium, and static culture was carried out at 37° C. for 16 to 20 hours, and then each bacterium species was diluted with a sterilized physiological saline to 10^5/ml, which was used as a test bacterium solution.
(§3) Then, each compound was dissolved in methanol, subjected to ½ stepwise dilution with a medium to prepare a medium for measuring sensitivity, and each 2 ml was dispensed into a test tube. A compound concentration in a medium was adjusted to 100 μg/ml and its 2^n-fold (n=−10 to 1).
(§4) Numerical values in Tables represent MIC expressed in μg/ml unit.

The test system of test [2] is E. coli NIHJ JC-2. Briefly: Antibacterial activity test (MIC). The format is cell-based. Particulars: Mueller-Hinton Broth, 37° C., 20 to 24 hours. As for the experimental part:
as §1, §2, §3, §4

Test [3] concerns P. aeruginosa PAO-1. Briefly: Antibacterial activity test (MIC). Format: cell-based. Particulars: Mueller-Hinton Broth, 37° C., 20 to 24 hours. As to the method:
as §1, §2, §3, §4

Test [4] has as its system S. aureus 209PJC. Briefly: Antibacterial activity test (MIC). The format is cell-based. Particulars: Mueller-Hinton Broth, 37° C., 20 to 24 hours. As for the experimental part: as §1, §2, §3, §4
For test [5], the system named is E. coli NIHJ JC-2. Briefly: Bactericidal activity test (MBC, phenol coefficient measuring method). Format: cell-based. As to the method:
(§5) As a test bacterium, the same bacteria species as those of the antibacterial activity test were used; as a medium to be used, a SCD medium (manufactured by Eiken Chemical Co., Ltd.) was used for pre-culture medium; and a heart infusion bouillon medium (manufactured by Eiken Chemical Co., Ltd.) was used as a medium for growing a live bacterium in a test solution after bactericidal treatment. One platinum loop of a test bacterium was inoculated into 20 ml of a medium, and static culture was carried out at 37° C. for 18 to 20 hours, and the cells were adjusted with a sterilized physiological saline to 1×10^7/ml, which was used as a test bacterium solution.
(§6) Then, a solution of each compound in methanol was subjected to ½ stepwise dilution with sterilized water, each 5 ml was dispensed into a test tube, 0.5 ml of the previously prepared test bacterium solution was added thereto, and the mixture was blended well. After 1 minute, 3 minutes and 5 minutes has passed, 5 μl of the test solution was collected and inoculated into 2 ml of a heart infusion bouillon medium, this was cultured at 37° C. for 40 to 48 hours, and the presence or absence of growth of a bacterium was determined. A test was performed three times, a minimum concentration at which growth of a bacterium was not recognized two or more times was adopted as a minimal bactericidal concentration (MBC value).
(§7) Numerical values in Tables represent MBC expressed in μg/ml unit.

Test [6] deals with P. aeruginosa PAO-1. The test is described as above. The format is cell-based. As for the experimental part: as §5, §6, §7
Test [7] relates to S. aureus 209PJC. The test is described as above. The format is cell-based. As to the method:
as §5, §6, §7

Test [8] has as its system MRSA 97-115. The description is as above. Format: cell-based, methicillin-resistant Staphylococcus aureus. As to the method: as §5, §6, §7

As to `CCCCCCCCCCCCC1N=C(N)NC(NCCc2ccc(OC)cc2)=N1.Cl` (racemic) [15(1)], the “minimal inhibitory concentration (MIC)” value in test [1] was 1.6 µg/mL; in test [2], 25 µg/mL; in test [3], 50 µg/mL; in test [4], 0.4 µg/mL. Besides, the “minimal bactericidal concentration (MBC)” value in test [5] (1 min) amounted to 6.3 µg/mL; in test [5] (3 min), 3.1 µg/mL; in test [5] (5 min), 1.6 µg/mL; in test [6] (1 min), 6.3 µg/mL; in test [6] (3 min) it was 3.1 µg/mL; in test [6] (5 min), 3.1 µg/mL. In addition, the “minimal bactericidal concentration (MBC)” value in test [7] (1 min) stood at 12.5 µg/mL; in test [7] (3 min), 3.1 µg/mL; in test [7] (5 min), 3.1 µg/mL; in test [8] (1 min), 25 µg/mL; in test [8] (3 min), 12.5 µg/mL; in test [8] (5 min), 6.3 µg/mL.
For `CCCCCCCCCCCC1N=C(N)NC(NCc2ccccc2)=N1.Cl` (racemic) [43(1)], the “minimal inhibitory concentration (MIC)” value is 0.8 µg/mL in test [1], 6.3 µg/mL in test [2], 25 µg/mL in test [3] and 0.4 µg/mL in test [4]. Besides, the “minimal bactericidal concentration (MBC)” value in test [5] (1 min) was 12.5 µg/mL; in test [5] (3 min), 6.3 µg/mL; in test [5] (5 min) it was 3.1 µg/mL; in test [6] (1 min) it was 3.1 µg/mL; in test [6] (3 min) it was 3.1 µg/mL; in test [6] (5 min), 3.1 µg/mL. Moreover, the “minimal bactericidal concentration (MBC)” value in test [7] (1 min) worked out at 25 µg/mL; in test [7] (3 min), 6.3 µg/mL; in test [7] (5 min), 6.3 µg/mL; in test [8] (1 min), 50 µg/mL; in test [8] (3 min), 25 µg/mL; in test [8] (5 min), 12.5 µg/mL.
Consider `CCCCCCCCCCNC1=NC(C)(C)N=C(NCc2ccc(OC)cc2)N1.CS(=O)(=O)O` [38(2)], for which the “minimal inhibitory concentration (MIC)” value in test [1] stood at 0.8 µg/mL; in test [2], 25 µg/mL; in test [3] it was 100 µg/mL; in test [4] it was 0.4 µg/mL. Besides, the “minimal bactericidal concentration (MBC)” value in test [5] (1 min) came to 6.3 µg/mL; in test [5] (3 min) it was 3.1 µg/mL; in test [5] (5 min), 3.1 µg/mL; in test [6] (1 min), 6.3 µg/mL; in test [6] (3 min), 3.1 µg/mL; in test [6] (5 min), 1.6 µg/mL. Moreover, the “minimal bactericidal concentration (MBC)” value in test [7] (1 min) turned out to be 12.5 µg/mL; in test [7] (3 min), 6.3 µg/mL; in test [7] (5 min), 3.1 µg/mL; in test [8] (1 min), 25 µg/mL; in test [8] (3 min), 12.5 µg/mL; in test [8] (5 min), 12.5 µg/mL.
For `CCCCCCCCCCNC1=NC(C)(C)N=C(NCc2ccccc2)N1.CS(=O)(=O)O` [compound 2], the figures for the “minimal inhibitory concentration (MIC)” value in test [1] and in test [4] were 0.8 µg/mL and 0.4 µg/mL, respectively. Moreover, the “minimal bactericidal concentration (MBC)” value in test [5] (1 min) was 6.3 µg/mL; in test [5] (3 min), 3.1 µg/mL; in test [5] (5 min), 3.1 µg/mL; in test [6] (1 min), 3.1 µg/mL; in test [6] (3 min) it was 1.6 µg/mL; in test [6] (5 min), 1.6 µg/mL. Further, the “minimal bactericidal concentration (MBC)” value in test [7] (1 min) amounted to 12.5 µg/mL; in test [7] (3 min), 6.3 µg/mL; in test [7] (5 min), 3.1 µg/mL; in test [8] (1 min), 25 µg/mL; in test [8] (3 min) it was 12.5 µg/mL; in test [8] (5 min), 6.3 µg/mL.
Regarding `CCCCCCCCCCNC1=NC(C)(C)N=C(NCCc2ccc(OC)cc2)N1.Cl` [compound 4], the “minimal inhibitory concentration (MIC)” value in test [1] turned out to be 0.8 µg/mL; in test [2], 50 µg/mL; in test [3], 50 µg/mL; in test [4] it was 0.4 µg/mL. Further, the “minimal bactericidal concentration (MBC)” value in test [5] (1 min) is 3.1 µg/mL; in test [5] (3 min), 1.6 µg/mL; in test [5] (5 min), 1.6 µg/mL; in test [6] (1 min), 3.1 µg/mL; in test [6] (3 min), 3.1 µg/mL; in test [6] (5 min), 1.6 µg/mL. The “minimal bactericidal concentration (MBC)” value worked out at 50 µg/mL in test [7] (1 min); 12.5 µg/mL in test [7] (3 min); 6.3 µg/mL in test [7] (5 min); 25 µg/mL in test [8] (1 min); 6.3 µg/mL in test [8] (3 min); 6.3 µg/mL in test [8] (5 min).
As to `CC(=O)O.CCCCCCCNC1=NC(C)(C)N=C(NC(C)(C)CC(C)(C)C)N1` [compound 71], the “minimal inhibitory concentration (MIC)” value is 0.8 µg/mL in test [1], 100 µg/mL in test [2], 100 µg/mL in test [3] and 0.8 µg/mL in test [4].
For `CC(=O)O.CCCCCCCCCCCCNC1=NC(C)(C)N=C(NCC)N1` [compound 73], the “minimal inhibitory concentration (MIC)” value is 1.6 µg/mL in test [1], 12.5 µg/mL in test [2], 50 µg/mL in test [3] and 0.8 µg/mL in test [4].
For `CC(=O)O.CCCCCCCCNC1=NCN=C(NCCCCCCCC)N1` [compound 74], the “minimal inhibitory concentration (MIC)” value in test [1] worked out at 0.8 µg/mL; in test [2], 12.5 µg/mL; in test [3] it was 100 µg/mL; in test [4], 0.8 µg/mL.
With `CCCCCCCCCCCCNC1=NC(C)(C)N=C(N)N1.O=[N+]([O-])O` [compound 75], the “minimal inhibitory concentration (MIC)” value in test [1] amounted to 3.1 µg/mL; in test [2], 25 µg/mL; in test [3], 50 µg/mL; in test [4], 0.8 µg/mL.
Consider `CCCCCCCCNC1=NC(C)(C)N=C(NCCCCCC)N1.O=C(O)C(O)C(O)C(O)C(O)CO` [compound 76], for which the “minimal inhibitory concentration (MIC)” value in test [1] came to 1.6 µg/mL; in test [2], 25 µg/mL; in test [3], 50 µg/mL; in test [4], 0.8 µg/mL.
Regarding `CC(=O)O.CCCCCCCCCCCCNC1=NC(C)(C)N=C(NCc2ccco2)N1` [compound 79], the “minimal inhibitory concentration (MIC)” value worked out at 1.6 µg/mL in test [1], 50 µg/mL in test [2], 100 µg/mL in test [3] and 0.8 µg/mL in test [4].
For `CCCCCCCCCCCCNC1=NC(C)(C)N=C(NCc2ccc(S(N)(=O)=O)cc2)N1` [compound 80], the “minimal inhibitory concentration (MIC)” value is 1.6 µg/mL (≈ 3.34 µM) in test [1], >100 µg/mL in test [2], >100 µg/mL in test [3] and 0.4 µg/mL (≈ 0.836 µM) in test [4].
As to `CCCCCCCCNC1=NC(C)(C)N(c2cnc3ccccc3c2)C(N)=N1.Cl.Cl` [compound 81], the “minimal inhibitory concentration (MIC)” value worked out at 1.6 µg/mL in test [1], 12.5 µg/mL in test [2], 50 µg/mL in test [3] and 0.8 µg/mL in test [4].
